Test results as given in US20240083861A1, “HSD17B13 INHIBITORS AND USES THEREOF” (FL2022-001, Inc., priority 2020, published 2024).
Where a name gives a salt, the structure may show the parent alone.

Target: T1, Recombinant human HSD17B13 enzyme (Homo sapiens, UniProt Q7Z5P4)
T1 sequence (Q7Z5P4 20-300): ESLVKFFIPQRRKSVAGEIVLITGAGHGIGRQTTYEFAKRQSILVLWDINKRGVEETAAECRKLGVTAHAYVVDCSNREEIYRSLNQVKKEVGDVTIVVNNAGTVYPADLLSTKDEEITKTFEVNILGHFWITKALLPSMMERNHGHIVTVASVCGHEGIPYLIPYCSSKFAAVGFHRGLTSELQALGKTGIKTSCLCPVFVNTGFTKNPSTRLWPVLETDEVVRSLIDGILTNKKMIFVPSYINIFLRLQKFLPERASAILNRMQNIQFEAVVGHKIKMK
Assay: HSD17b13 NAD(P)H-Glo biochemical assay
Conditions: 50 uM estradiol, 1 mM NAD+, NAD(P)H-Glo luminescence; read-out: HSD17β13 IC50
Outline: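 Recombinant human HSD17B13 in 20 mM Tris pH7.4 with 0.002% Tween-20 and 0.02% BSA was preincubated with inhibitor for 20 minutes at RT. The reaction ran 3 hours at 37° C with 50 uM estradiol and 1 mM NAD+ (final). NADH formed was detected by NAD(P)H-Glo luminescence after 1 hour at RT.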

Row | Structure (SMILES) | IC50
1 | Oc1c(F)c(-c2nn(C3CCOCC3)c3cc(N4CCOCC45CC5)ncc23)cc(C(F)(F)F)c1F [Compound 9.54, 3-(6-(7-Oxa-4-azaspiro[2.5]octan-4-yl)-1-(tetrahydro-2H-pyran-4-yl)-1H-pyrazolo[4,3-c]pyridin-3-yl)-2,6-difluoro-5-(trifluoromethyl)phenol] | < 0.1 µM
2 | CC1(C#N)CN(c2ncc3c(-c4cc(O)c(F)c(C(F)(F)F)c4)n[nH]c3n2)C1 [Compound 10.02, 1-(3-(4-Fluoro-3-hydroxy-5-(trifluoromethyl)phenyl)-1H-pyrazolo[3,4-d]pyrimidin-6-yl)-3-methylazetidine-3-carbonitrile] | < 0.1 µM
3 | CN(c1cc2c(cn1)c(-c1cc(C(F)(F)F)c(F)c(O)c1F)nn2C)C1CCCOC1 (stereo not shown) [Compound 9.44, 2,6-Difluoro-3-(1-methyl-6-(methyl(tetrahydro-2H-pyran-3-yl)amino)-1H-pyrazolo[4,3-c]pyridin-3-yl)-5-(trifluoromethyl)phenol] | < 0.1 µM
4 | Cn1nc(-c2cc(C(F)(F)F)c(F)c(O)c2F)c2cnc(N3CCN(c4ccccc4)C(=O)C3)cc21 [Compound 9.91, 4-(3-(2,4-Difluoro-3-hydroxy-5-(trifluoromethyl)phenyl)-1-methyl-1H-pyrazolo[4,3-c]pyridin-6-yl)-1-phenylpiperazin-2-one] | < 0.1 µM
5 | CS(=O)(=O)N1CCN(c2cnc3c(-c4cc(O)c(F)c(C(F)(F)F)c4)nn(C4CCCCO4)c3n2)CC1 (stereo not shown) [Compound 10.05, 2-Fluoro-5-(6-(4-(methylsulfonyl)piperazin-1-yl)-1-(tetrahydro-2H-pyran-2-yl)-1H-pyrazolo[3,4-b]pyrazin-3-yl)-3-(trifluoromethyl)phenol] | < 0.1 µM
6 | Cn1nc(-c2cc(C(F)(F)F)c(F)c(O)c2F)c2cnc(N3CCOC(C)(C)C3)cc21 [Compound 9.33, 3-(6-(2,2-Dimethylmorpholino)-1-methyl-1H-pyrazolo[4,3-c]pyridin-3-yl)-2,6-difluoro-5-(trifluoromethyl)phenol] | < 0.1 µM
7 | CN(c1ncc2c(-c3cc(C(F)(F)F)c(F)c(O)c3F)nn(C)c2n1)C1CCOCC1 [Compound 9.39, 2,6-Difluoro-3-(1-methyl-6-(methyl(tetrahydro-2H-pyran-4-yl)amino)-1H-pyrazolo[3,4-d]pyrimidin-3-yl)-5-(trifluoromethyl)phenol] | < 0.1 µM
8 | Cn1nc(-c2cc(C(F)(F)F)c(F)c(O)c2F)c2cnc(N3CCNC4(CCC4)C3)nc21 [Compound 20, 2,6-Difluoro-3-(1-methyl-6-(5,8-diazaspiro[3.5]nonan-8-yl)-1H-pyrazolo[3,4-d]pyrimidin-3-y1)-5-(trifluoromethyl)phenol HCl salt] | < 0.1 µM
9 | CN(c1cc2c(cn1)c(-c1cc(C(F)(F)F)c(F)c(O)c1F)nn2C)C12CC(C1)C2 [Compound 9.32, 3-(6-(Bicyclo[1.1.1]pentan-1-yl(methyl)amino)-1-methyl-1H-pyrazolo[4,3-c]pyridin-3-yl)-2,6-difluoro-5-(trifluoromethyl)phenol] | < 0.1 µM
10 | O=C(NC1(CCO)CCC1)c1ccc2oc(-c3cc(C(F)(F)F)c(F)c(O)c3F)nc2c1 [Compound 1.27, 2-(2,4-Difluoro-3-hydroxy-5-(trifluoromethyl)phenyl)-N-(1-(2-hydroxyethyl)cyclobutyl)benzo[d]oxa-zole-5-carboxamide] | 0.1 to 1 µM
11 | COC1CCN(c2nc3c(cc2F)c(-c2cc(C(F)(F)F)c(F)c(O)c2F)nn3C)CC1 [Compound 9.106, 2,6-Difluoro-3-(5-fluoro-6-(4-methoxypiperidin-1-yl)-1-methyl-1H-pyrazolo[3,4-b]pyridin-3-yl)-5-(trifluoromethyl)phenol] | < 0.1 µM
12 | Cn1nc(-c2ccc(F)c(O)c2F)c2cnc(N3CCOC4(CCC4)C3)cc21 [Compound 9.109, 2,6-Difluoro-3-(1-methyl-6-(5-oxa-8-azaspiro[3.5]nonan-8-yl)-1H-pyrazolo[4,3-c]pyridin-3-yl)phenol] | 0.1 to 1 µM
13 | CN(c1cc2c(cn1)c(-c1cc(C(F)(F)F)c(F)c(O)c1F)nn2C)C1CCC1 [Compound 9.07, 3-(6-(Cyclobutyl(methyl)amino)-1-methyl-1H-pyrazolo[4,3-c]pyridin-3-yl)-2,6-difluoro-5-(trifluoromethyl)phenol] | < 0.1 µM

Second part, the compound after the results:

Row | IC50 | Structure (SMILES)
14 | < 0.1 µM | Cn1nc(-c2cc(C(F)(F)F)c(F)c(O)c2F)c2cnc(N3CCN(S(C)(=O)=O)[C@@H](c4ccccc4)C3)nc21 [Compound 18.109, (S)-2,6-Difluoro-3-(1-methyl-6-(4-(methylsulfony1)-3-phenylpiperazin-1-y1)-1H-pyrazolo[3,4-d]pyrimidin-3-y1)-5-(trifluoromethyl)phenol]
15 | < 0.1 µM | Cn1nc(-c2cc(C(F)(F)F)c(F)c(O)c2F)c2cnc(N3CCOC(C4CCOCC4)C3)nc21 (stereo not shown) [Compound 18.49, 2,6-Difluoro-3-(1-methyl-6-(2-(tetrahydro-2H-pyran-4-yl)morpholino)-1H-pyrazolo[3,4-d]pyrimidin-3-y1)-5-(trifluoromethyl)phenol]
16 | < 0.1 µM | Cn1nc(-c2cc(C(F)(F)F)c(F)c(O)c2F)c2cnc(N(Cc3ccccc3)C3CCOCC3)nc21 [Compound 19.02, 3-(6-(Benzyl(tetrahydro-2H-pyran-4-yl)amino)-1-methyl-1H-pyrazolo[3,4-d]pyrimidin-3-y1)-2,6-difluoro-5-(trifluoromethyl)phenol]
17 | 1 to 30 µM | Cn1nc(-c2cc(C(F)(F)F)c(F)c(O)c2F)c2cnc(N3CCOC(CC(=O)O)C3)nc21 (stereo not shown) [Compound 18.57, 2-(4-(3-(2,4-Difluoro-3-hydroxy-5-(trifluoromethyl)phenyl)-1-methyl-1H-pyrazolo[3,4-d]pyrimidin-6-yl)morpholin-2-yl)acetic Acid]
18 | 1 to 30 µM | Cn1nc(-c2cc(O)cc3ccccc23)c2cnc(N3CCN(S(C)(=O)=O)C4(CC4)C3)nc21 [Compound 12.09, 4-(1-Methyl-6-(4-(methylsulfonyl)-4,7-diazaspiro[2.5]octan-7-yl)-1H-pyrazolo[3,4-d]pyrimidin-3-yl)naphthalen-2-ol]
19 | < 0.1 µM | Cn1nc(-c2cc(C(F)(F)F)c(F)c(O)c2F)c2cnc(N3CCOCC3(C)C)nc21 [Compound 18.102, 3-(6-(3,3-Dimethylmorpholino)-1-methyl-1H-pyrazolo[3,4-d]pyrimidin-3-y1)-2,6-difluoro-5-(trifluoromethyl)phenol]
20 | 0.1 to 1 µM | Cn1nc(-c2cc(C(F)(F)F)c(F)c(O)c2F)c2cnc(N3CCN(C(=O)C4CCOCC4)CC3)nc21 [Compound 18.127, (4-(3-(2,4-Difluoro-3-hydroxy-5-(trifluoromethyl)phenyl)-1-methyl-1H-pyrazolo[3,4-d]pyrimidin-6-yl)piperazin-1-yl)(tetrahydro-2H-pyran-4-yl)methanone]
21 | 0.1 to 1 µM | Cn1nc(-c2cc(C(F)(F)F)c(F)c(O)c2F)c2cnc(N3CCOC(c4ncc[nH]4)C3)nc21 (stereo not shown) [Compound 18.79, 3-(6-(2-(1H-Imidazol-2-yl)morpholino)-1-methyl-1H-pyrazolo[3,4-d]pyrimidin-3-y1)-2,6-difluoro-5-(trifluoromethyl)phenol]
22 | < 0.1 µM | Cn1nc(-c2cc(C(F)(F)F)c(F)c(O)c2F)c2cnc(N3CCN(S(C)(=O)=O)C4(CCCCC4)C3)nc21 [Compound 18.84, 2,6-Difluoro-3-(1-methyl-6-(1-(methylsulfony1)-1,4-diazaspiro[5.5]undecan-4-yl)-1H-pyrazolo[3,4-d]pyrimidin-3-y1)-5-(trifluoromethyl)phenol]
23 | < 0.1 µM | Cn1nc(-c2cc(C(F)(F)F)c(F)c(O)c2F)c2cnc(N3CCC(O)(C4CC4)CC3)nc21 [Compound 18.93, 4-Cyclopropyl-1-(3-(2,4-difluoro-3-hydroxy-5-(trifluoromethyl)phenyl)-1-methyl-1H-pyrazolo[3,4-d]pyrimidin-6-y1)piperidin-4-ol]
24 | < 0.1 µM | CN(c1ncc2c(-c3cc(C(F)(F)F)c(F)c(O)c3F)nn(C)c2c1Cl)C1CCOCC1 [Compound 12.08, 3-(7-Chloro-1-methyl-6-(methyl(tetrahydro-2H-pyran-4-yl)amino)-1H-pyrazolo[4,3-c]pyridin-3-yl)-2,6-difluoro-5-(trifluoromethyl)phenol]
25 | < 0.1 µM | CN(C)C(=O)N1CCN(c2ncc3c(-c4cc(C(F)(F)F)c(F)c(O)c4F)nn(C)c3n2)CC12CCC2 [Compound 20.02, 8-(3-(2,4-Difluoro-3-hydroxy-5-(trifluoromethyl)phenyl)-1-methyl-1H-pyrazolo[3,4-d]pyrimidin-6-yl)-N,N-dimethy1-5,8-diazaspiro[3.5]nonane-5-carboxamide]
26 | < 0.1 µM | Cn1nc(-c2cc(C(F)(F)F)c(F)c(O)c2F)c2cnc(N3CCN(C(=O)c4ccccc4)CC3)nc21 [Compound 18.114, (4-(3-(2,4-Difluoro-3-hydroxy-5-(trifluoromethyl)phenyl)-1-methyl-1H-pyrazolo[3,4-d]pyrimidin-6-y1)piperazin-1-yl)(phenyl)methanone]
27 | < 0.1 µM | Cn1nc(-c2cc(C(F)(F)F)c(F)c(O)c2F)c2cnc(N3CCOC(c4ccccc4)C3)nc21 (stereo not shown) [Compound 18.32, 2,6-Difluoro-3-(1-methyl-6-(2-phenylmorpholino)-1H-pyrazolo[3,4-d]pyrimidin-3-y1)-5-(trifluoromethyl)phenol]
28 | 0.1 to 1 µM | Cn1nc(-c2cc(O)c(F)c(C(F)(F)F)c2)c2ccc(C3CCN(S(C)(=O)=O)CC3)cc21 [Compound 15.02, 2-Fluoro-5-(1-methyl-6-(1-(methylsulfonyl)piperidin-4-y1)-1H-indazol-3-yl)-3-(trifluoromethyl)phenol]
